IC50 data for 29 compounds are collected here from patent publication US12398120B2, “Substituted hydantoinamides as ADAMTS7 antagonists” (BAYER AKTIENGESELLSCHAFT, priority 2019, dated 2025).

Chain of ADAMTS4 (O75173 213-685): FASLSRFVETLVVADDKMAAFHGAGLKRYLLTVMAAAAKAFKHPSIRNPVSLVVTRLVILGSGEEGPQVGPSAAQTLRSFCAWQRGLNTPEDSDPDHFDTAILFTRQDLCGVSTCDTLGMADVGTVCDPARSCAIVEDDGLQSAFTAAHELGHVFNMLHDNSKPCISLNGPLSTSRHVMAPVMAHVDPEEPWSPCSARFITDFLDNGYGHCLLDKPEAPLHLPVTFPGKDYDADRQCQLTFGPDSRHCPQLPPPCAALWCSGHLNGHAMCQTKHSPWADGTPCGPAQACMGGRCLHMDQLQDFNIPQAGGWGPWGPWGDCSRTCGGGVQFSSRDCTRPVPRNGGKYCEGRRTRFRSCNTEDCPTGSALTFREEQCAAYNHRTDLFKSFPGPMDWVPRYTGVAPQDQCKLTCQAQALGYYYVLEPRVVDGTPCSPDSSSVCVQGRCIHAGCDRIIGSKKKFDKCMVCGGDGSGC

This assay deals with ADAMTS4 (Homo sapiens (Human), UniProt O75173). Briefly: Selectivity assay for ADAMTS-7 modulators: ADAMTS4 (FRET substrate). The assay is classed as biochemical. As to conditions: ADAMTS4 (R&D 4307-AD) 50 nM, substrate Dabcyl-EEVKAKVQPY-Glu(Edans)-NH2 1 μM, 120 min, 32° C. In a few lines:
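Activity read as rising fluorescence after a FRET substrate is cleaved by human ADAMTS4, with reactions started by substrate addition to wells holding compound or DMSO. Percent inhibition plotted against concentration gave IC50.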
The compound `Cc1ccc(-c2cc(Cl)ccc2C(=O)NCC2(c3nccn3C)NC(=O)NC2=O)cc1` (single isomer, unassigned; ent-5) [Example 153, Ent-5-Chloro-4′-Methyl-N-{[4-(1-Methyl-1H-Imidazol-2-Yl)-2,5-Dioxoimidazolidin-4-Yl]Methyl}[Biphenyl]-2-Carboxamide] returned an IC50 of 0.51 µM.
In the case of `O=C1NC(=O)C(CNC(=O)c2ccccc2-c2ccc(C(F)(F)F)cc2)(C2(F)CC2)N1` (racemic) [Example 254, Rac-N-{[4-(1-Fluorocyclopropyl)-2,5-Dioxoimidazolidin-4-Yl]Methyl}-4′-(Trifluoromethyl)[Biphenyl]-2-Carboxamide], the IC50 is 26 µM. This IC50 is about 51-fold higher than that of the compound before.
`O=C1NC(=O)[C@](CNC(=O)c2ccccc2-c2ccc(OC(F)(F)F)cc2)(C2CC2)N1` [Example 21, N-{[(4R)-4-Cyclopropyl-2,5-Dioxoimidazolidin-4-Yl]Methyl}-4′-(Trifluoromethoxy)[Biphenyl]-2-Carboxamide]: the IC50 was over 50 µM.
`O=C1NC(=O)C(CNC(=O)c2ccccc2-c2ccc(Cl)cc2)(C2(F)CC2)N1` (single isomer, unassigned; ent-4) [Example 251, Ent-4′-Chloro-N-{[4-(1-Fluorocyclopropyl)-2,5-Dioxoimidazolidin-4-Yl]Methyl}[Biphenyl]-2-Carboxamide]: the IC50 stood at 11 µM.
Under `O=C1NC(=O)[C@](CNC(=O)c2cc(F)ccc2-c2ccc(Cl)c(Cl)c2)(C2CC2)N1` [Example 234, 3′,4′-Dichloro-N-{[(4R)-4-Cyclopropyl-2,5-Dioxoimidazolidin-4-Yl]Methyl}-4-Fluoro[1,1′-Biphenyl]-2-Carboxamide] stands 16 µM; under `CC(C)c1ccc(-c2ccccc2C(=O)NC[C@@]2(C3CC3)NC(=O)NC2=O)cc1` [Example 118, N-{[(4R)-4-Cyclopropyl-2,5-Dioxoimidazolidin-4-Yl]Methyl}-4′-Isopropyl[Biphenyl]-2-Carboxamide], 7.6 µM; under `Cn1nccc1C1(CNC(=O)c2cc(F)ccc2-c2ccc(C(F)(F)F)nc2)NC(=O)NC1=O` (single isomer, unassigned; ent-5) [Example 292, Ent-5-Fluoro-N-{[4-(1-Methyl-1H-Pyrazol-5-Yl)-2,5-Dioxoimidazolidin-4-Yl]Methyl}-2-[6-(Trifluoromethyl)Pyridin-3-Yl]Benzamide], 9.5 µM.
As to `Cn1nc2ccccc2c1C1(CNC(=O)c2ccc(F)cc2-c2ccc(C(F)(F)F)cc2)NC(=O)NC1=O` (racemic) [Example 288, Rac-5-Fluoro-N-{[4-(2-Methyl-2H-Indazol-3-Yl)-2,5-Dioxoimidazolidin-4-Yl]Methyl}-4′-(Trifluoromethyl)[Biphenyl]-2-Carboxamide], the IC50 was found to be 21 µM.
In turn, `Cc1c(C2(CNC(=O)c3ccccc3-c3ccc(C(F)(F)F)cc3)NC(=O)NC2=O)cnn1C` (racemic) [Example 14, Rac-N-{[4-(1,5-Dimethyl-1H-Pyrazol-4-Yl)-2,5-Dioxoimidazolidin-4-Yl]Methyl}-4′-(Trifluoromethyl)[Biphenyl]-2-Carboxamide] had an IC50 of 17 µM.
Turning to `Cc1cn(C)nc1C1(CNC(=O)c2ccccc2-c2ccc(C(F)(F)F)nc2)NC(=O)NC1=O` (racemic) [Example 35, Rac-N-{[4-(1,4-Dimethyl-1H-Pyrazol-3-Yl)-2,5-Dioxoimidazolidin-4-Yl]Methyl}-2-[6-(Trifluoromethyl)Pyridin-3-Yl]Benzamide], the IC50 was found to be 10 µM.
`Cc1scnc1C1(CNC(=O)c2ccc(Cl)cc2-c2ccc(C(F)(F)F)cc2)NC(=O)NC1=O` (single isomer, unassigned; ent-5) [Example 16, Ent-5-Chloro-N-{[4-(5-Methyl-1,3-Thiazol-4-Yl)-2,5-Dioxoimidazolidin-4-Yl]Methyl}-4′-(Trifluoromethyl)[Biphenyl]-2-Carboxamide] returned an IC50 of 3.5 µM.
For the compound `O=C1NC(=O)C(CNC(=O)c2ccccc2-c2ccc(Cl)cc2)(c2ccnn2C(F)F)N1` (single isomer, unassigned; ent-4) [Example 259, Ent-4′-Chloro-N-({4-[1-(Difluoromethyl)-1H-Pyrazol-5-Yl]-2,5-Dioxoimidazolidin-4-Yl}Methyl)[Biphenyl]-2-Carboxamide], the IC50 amounted to 5.8 µM.
Turning to `CCC(C)C1(CNC(=O)c2ccccc2-c2ccc(C(F)(F)F)cc2)NC(=O)NC1=O` (centres unmarked) [Example 38, Diamix-N-[(4-Sec-Butyl-2,5-Dioxoimidazolidin-4-Yl)Methyl]-4′-(Trifluoromethyl)[Biphenyl]-2-Carboxamide], the half-maximal inhibitory concentration (IC50) came to 21 µM.
With `Cc1scnc1C1(CNC(=O)c2cc(F)ccc2-c2ccc(C(F)(F)F)cc2)NC(=O)NC1=O` (racemic) [Example 165, Rac-4-Fluoro-N-{[4-(5-Methyl-1,3-Thiazol-4-Yl)-2,5-Dioxoimidazolidin-4-Yl]Methyl}-4′-(Trifluoromethyl)[Biphenyl]-2-Carboxamide], the IC50 was found to be 6.6 µM.
The same measure for `Cn1nccc1C1(CNC(=O)c2ccccc2-c2ccc(C(F)(F)F)cc2)NC(=O)NC1=O` (stereo not drawn) [Example 185, Ent-N-{[4-(1-Methyl-1H-Pyrazol-5-Yl)-2,5-Dioxoimidazolidin-4-Yl]Methyl}-4′-(Trifluoromethyl)[Biphenyl]-2-Carboxamide]: 16.5 µM; for `O=C1NC(=O)C(CNC(=O)c2ccccc2-c2ccc(C(F)(F)F)cc2)(c2ncccc2C(F)(F)F)N1` (stereo not drawn) [Example 244, Ent-N-({2,5-Dioxo-4-[3-(Trifluoromethyl)Pyridin-2-Yl]Imidazolidin-4-Yl}Methyl)-4′-(Trifluoromethyl)[Biphenyl]-2-Carboxamide]: 10 µM.
For the compound `Cc1conc1C1(CNC(=O)c2ccccc2-c2ccc(C(F)(F)F)cc2)NC(=O)NC1=O` (racemic) [Example 44, Rac-N-{[4-(4-Methyl-1,2-Oxazol-3-Yl)-2,5-Dioxoimidazolidin-4-Yl]Methyl}-4′-(Trifluoromethyl)[Biphenyl]-2-Carboxamide], half-maximal inhibition (IC50) was put at 11 µM.
Consider `CC(C)C1(CNC(=O)c2ccccc2-c2ccc(C(F)(F)F)nc2)NC(=O)NC1=O` (stereo not drawn) [Example 211, Ent-N-[(4-Isopropyl-2,5-Dioxoimidazolidin-4-Yl)Methyl]-2-[6-(Trifluoromethyl)Pyridin-3-Yl]Benzamide], for which inhibition was half-maximal at 28 µM (IC50).
Consider `CCn1nccc1C1(CNC(=O)c2ccccc2-c2ccc(C(F)(F)F)cc2)NC(=O)NC1=O` (racemic) [Example 4, Rac-N-{[4-(1-Ethyl-1H-Pyrazol-5-Yl)-2,5-Dioxoimidazolidin-4-Yl]Methyl}-4′-(Trifluoromethyl)[Biphenyl]-2-Carboxamide], for which half-maximal inhibition (IC50) was put at 19 µM.
For the compound `Cn1nccc1C1(CNC(=O)c2ccccc2-c2ccc(Cl)cc2)NC(=O)NC1=O` (racemic) [Example 181, Rac-4′-Chloro-N-{[4-(1-Methyl-1H-Pyrazol-5-Yl)-2,5-Dioxoimidazolidin-4-Yl]Methyl}[Biphenyl]-2-Carboxamide], the IC50 is 12 µM. This IC50 is about 1.6-fold lower than that of the compound before.
Under `O=C1NC(=O)C(CNC(=O)c2ccc(F)c(F)c2-c2ccc(C(F)(F)F)cc2)(C2(F)CC2)N1` (single isomer, unassigned; ent-5) [Example 298, Ent-5,6-Difluoro-N-{[4-(1-Fluorocyclopropyl)-2,5-Dioxoimidazolidin-4-Yl]Methyl}-4′-(Trifluoromethyl)[Biphenyl]-2-Carboxamide] stands 9.3 µM.
In the case of `O=C1NC(=O)C(CNC(=O)c2cc(F)ccc2-c2ccc(C(F)(F)F)cc2)(c2ncsc2C(F)(F)F)N1` (stereo not drawn) [Example 266, Ent-N-({2,5-Dioxo-4-[5-(Trifluoromethyl)-1,3-Thiazol-4-Yl]Imidazolidin-4-Yl}Methyl)-4-Fluoro-4′-(Trifluoromethyl)[Biphenyl]-2-Carboxamide], half-maximal inhibition (IC50) required 10 µM.
Turning to `Cc1nocc1C1(CNC(=O)c2ccccc2-c2ccc(C(F)(F)F)nc2)NC(=O)NC1=O` (stereo not drawn) [Example 65, Ent-N-{[4-(3-Methyl-1,2-Oxazol-4-Yl)-2,5-Dioxoimidazolidin-4-Yl]Methyl}-2-[6-(Trifluoromethyl)Pyridin-3-Yl]Benzamide], 20 µM corresponded to half-maximal inhibition (IC50).
In the case of `O=C1NC(=O)C(CNC(=O)c2ccc(F)c(F)c2-c2ccc(C(F)(F)F)cc2)(c2ccnn2-c2ccccc2)N1` (racemic) [Example 315, Rac-N-{[2,5-Dioxo-4-(1-Phenyl-1H-Pyrazol-5-Yl)Imidazolidin-4-Yl]Methyl}-5,6-Difluoro-4′-(Trifluoromethyl)[Biphenyl]-2-Carboxamide], 1.3 µM corresponded to half-maximal inhibition (IC50). This IC50 lies about 15-fold lower than the previous one.
Compound `O=C1NC(=O)C(CNC(=O)c2ccc(F)c(F)c2-c2ccc(C(F)(F)F)cc2)(c2cscn2)N1` (stereo not drawn) [Example 278, Ent-N-{[2,5-Dioxo-4-(1,3-Thiazol-4-Yl)Imidazolidin-4-Yl]Methyl}-5,6-Difluoro-4′-(Trifluoromethyl)[Biphenyl]-2-Carboxamide] displayed an IC50 of 8.6 µM.
Regarding `O=C1NC(=O)C(CNC(=O)c2ccccc2-c2ccc(C(F)(F)F)cc2)(C2(F)CC2)N1` (stereo not drawn) [Example 255, Ent-N-{[4-(1-Fluorocyclopropyl)-2,5-Dioxoimidazolidin-4-Yl]Methyl}-4′-(Trifluoromethyl)[Biphenyl]-2-Carboxamide], the IC50 was 10 µM.
Consider `Cc1ccc(-c2ccccc2C(=O)NC[C@@]2(C3CC3)NC(=O)NC2=O)cc1F` [Example 221, N-{[(4R)-4-Cyclopropyl-2,5-Dioxoimidazolidin-4-Yl]Methyl}-3′-Fluoro-4′-Methyl[1,1′-Biphenyl]-2-Carboxamide], for which half-maximal inhibition (IC50) was put at 8.1 µM.
`Cn1nccc1C1(CNC(=O)c2ccccc2-c2ccc(Cl)cc2)NC(=O)NC1=O` (single isomer, unassigned; ent-4) [Example 182, Ent-4′-Chloro-N-{[4-(1-Methyl-1H-Pyrazol-5-Yl)-2,5-Dioxoimidazolidin-4-Yl]Methyl}[Biphenyl]-2-Carboxamide] came in with an IC50 of 4.03 µM.
`O=C1NC(=O)[C@](CNC(=O)c2ccc(F)cc2-c2ccc(F)cc2)(C2CC2)N1` [Example 128, N-{[(4R)-4-Cyclopropyl-2,5-Dioxoimidazolidin-4-Yl]Methyl}-4′,5-Difluoro[Biphenyl]-2-Carboxamide] returned an IC50 of 13 µM.
